Results taken from patent publication US8222031B2, “Three-dimensional skin model” (Fraunhofer-Gesellschaft zur Foerderung der angewandten …, priority 2000, dated 2012).

What was measured:
Type in all cases: cell-based
[1] = system: three-dimensional human skin equivalent; experiment: EZ4U test: cell metabolism (cytotoxicity) of skin equivalents
Procedure: (§1) Substances samples were used equivalently for testing on the human skin equivalent. The objective was to study any irritating effect of the samples on the full skin model after 48 hours of incubation time via the EZ4U metabolism. The secretion of Il1α and PGE2 was supposed to be determined in the media supernatants after 24 hours and after 48 hours by ELISA. Different concentrations of SDS were also run as a reference substance. Finally, all tested skin equivalents were fixed, and the morphological structure was tested and evaluated with stained paraffin sections.
The skin equivalents each were prepared in a 6-well with 1 ml of medium (KBM without hEGF, without BPE, and with 1.8 mM CaCl2). The samples were incubated on the surface of the corresponding skin models according to the following schedule: […]
The EZ4U test was performed as followed: After 48 hours of incubation, the cell metabolism of the individual skin equivalents was determined photometrically using a vital stain (tetrazolium derivative). […] Turnover kinetics of the negative controls, positive controls, and the equivalents treated with the samples were recorded over a period of 2 hours at 450 nm (with a reference wavelength of 620 nm). […] Both Ec50 and Et50 were determined for SDS. Et50 was determined according to different exposure times from 1% SDS (3 sec, 30 sec, 60 sec, 5 min, 15 min). […]

[2] = system: three-dimensional human skin equivalent; experiment: PGE2 synthesis in media supernatants of skin equivalents by ELISA
Procedure: as §1
(§2) The skin equivalents each were prepared in a 6-well with 1 ml of medium (KBM without hEGF, without BPE, and with 1.8 mM CaCl2). The samples were incubated on the surface of the corresponding skin models according to the following schedule:
(§3) Day 1: Application of 3 μl substance in the morning and in the afternoon.
Day 2: Media replacement and freezing of media supernatants for Il1α und PGE2 determination. Treatment with 3 μl substance in the morning and in the afternoon.
Day 3: Freezing of media supernatants for Il1α und PGE2 determination. Determination of cell metabolism in EZ4U test over a period of 2 hours. Fixation of slides and preparation of stained paraffin sections for histological evaluation.
(§4) The Il1α and PGE2 content in the media supernatants was determined after 24 hours and 48 hours of incubation of the samples using commercially available ELISA test kits and following their instructions.
The synthesis of the PGE2 inflammatory mediator was quantitatively determined by ELISA in the skin model after a first incubation for 24 hours and subsequent second incubation for 24 hours with test substances in the media supernatants of the equivalents. Samples 186-355 as well as different concentrations of SDS were used as test substances.

[3] = system: three-dimensional human skin equivalent; experiment: Il1α secretion in media supernatants of skin equivalents by ELISA
Procedure: as §1, §2, §3
Day 2: Media replacement and freezing of media supernatants for Il1α und PGE2 determination. […]
as §4
The induced secretion of cytokine Il1α was quantified by ELISA first after 24 hours and then after a subsequent, additional incubation for 24 hours with test substances in the media supernatants of the equivalents. […]

CCCCCCCCCCCCOS(=O)(=O)[O-].[Na+] [SDS]
Change (in percent) of cell metabolism after 48 hours of incubation, in relation to untreated control (100%) ([1]; AST-2000, SDS 0.73% (Ec50 from dose/effect curve)): 50%
Ec50 (concentration that causes 50% cell damage; irritation threshold) ([1]; SDS reference, dose/effect curve): 0.73%
PGE2 synthesis ([2]; 1% SDS, after the first 24 hours): ≥ 4000 pg/ml per skin equivalent
PGE2 synthesis after the second 24-hour incubation ([2]; SDS, second 24-hour incubation): practically unchanged
PGE2 synthesis ([2]; up to an SDS concentration of 0.5%): almost unchanged low level
Il1α secretion, maximum ([3]; 1% SDS, first 24 h incubation): more than 100 pg/ml per skin equivalent
Il1α secretion after the second incubation ([3]; SDS, second 24 h incubation): remain overall elevated
